Data as given in the NIST ThermoML archive (doi:10.1016/j.fluid.2018.11.001).
Numbers after ± are expanded uncertainties.

Conditions: Crystal; visual observation

SMILES	Normal melting temperature [°C]
CCn1cc[n+](C)c1.Cc1ccc(S(=O)(=O)[O-])cc1 [1-ethyl-3-methylimidazolium 4-methylbenzenesulfonate]	54.2 ± 0.7
CCn1cc[n+](C)c1.[Br-] [1-ethyl-3-methylimidazolium bromide]	77.1 ± 0.7
